For 3 compounds, melting point and CC50 results are on record in patent publication US7015221B2, “2,4-disubstituted triazine derivatives” (Janssen Pharmaceutica, N.V., priority 1998, dated 2006).

Series [1] is described as follows: Cytotoxicity in mock-infected MT-4 cells (MTT). Particulars: human, concentration reducing absorbance of mock-infected MT-4 control by 50%. In kind it is cell-based.

Some results are limits rather than exact numbers.

For orientation: melting point means the temperature of the solid-liquid transition. In turn, `CC(C)c1cc(Br)c(Nc2ncnc(Nc3ccc(C#N)cc3)n2)c(Br)c1` [Compound 8, 4-[[4-[[2,6-dibromo-4-(1-methylethyl)phenyl]amino]-1,3,5-triazin-2-yl]amino]benzonitrile] returned a melting point of 245 to 247 °C. The term CC50 denotes the concentration that lowers cell viability or growth by half. As for `Cc1cc(C)c(Oc2ncnc(Nc3ccc(C#N)cc3)n2)c(C)c1` [Compound 2, 4-[[4-(2,4,6-trimethylphenoxy)-1,3,5-triazin-2-yl]amino]benzonitrile], the CC50 in series [1] was above 100 µM. Take `Cc1cc(C)c(Sc2ncnc(Nc3ccc(C#N)cc3)n2)c(C)c1` [Compound 4, 4-[[4-[(2,4,6-trimethylphenyl)thio]-1,3,5-triazin-2-yl]amino]benzonitrile]: in series [1], the half-maximal cytotoxic concentration (CC50) was above 100 µM.
